Literature values in publication PMC11954708 (Clinical Pharmacokinetics, 2025).

Key:
[1] = total body clearance value
[2] = for Positive FE in vivo: Yes/No; for AUC ratio Observed: fed/fasted in vivo

SMILES | CL (po) [1] | Positive FE in vivo [2] | CYP3A4 or UGT substrate? (CYP3A4 or UGT) | CL [1] | AUC ratio Observed [2]
O=C1Nc2ccc(Cl)cc2[C@@](C#CC2CC2)(C(F)(F)F)O1 [Efavirenz] | 9.4 (po) [51] l/h | Yes | – | – | 1.28
C[C@H]1O[C@@H](O[C@H]2[C@@H](O)C[C@H](O[C@H]3[C@@H](O)C[C@H](O[C@H]4CC[C@@]5(C)[C@H](CC[C@@H]6[C@@H]5C[C@@H](O)[C@]5(C)[C@@H](C7=CC(=O)OC7)CC[C@]65O)C4)O[C@@H]3C)O[C@@H]2C)C[C@H](O)[C@@H]1O [Digoxin] | – | – | No | 5.28 [51] l/h | –
CCOC(=O)C1=C(C)NC(C)=C(C(=O)OC)C1c1cccc(Cl)c1Cl (centres unmarked) [Felodipine] | – | No | – | – | –

The remaining lines, values ahead:

CL (po) [1] | Positive FE in vivo [2] | CYP3A4 or UGT substrate? (CYP3A4 or UGT) | CL [1] | AUC ratio Observed [2] | SMILES
21.23 (po) [51] l/h | No | No | – | – | Cc1cccc(Nc2ccccc2C(=O)O)c1C [Mefenamic acid]
– | Yes | – | 84 [52] l/h | – | COC(=O)[C@H](c1ccccc1Cl)N1CCc2sccc2C1 [Clopidogrel]
– | Yes | – | 2.7 [50] l/h | 1.12 | NC(=O)N1c2ccccc2C=Cc2ccccc21 [Carbamazepine]
